Measurements from patent US7754767B2, “Method for treatment of premature ejaculation in humans” (Trinity Laboratories, Inc., priority 2002, dated 2010).
“And” between values parts separate entries of the source, which are not always exact repeats. Equal entries are not always repeated.

Legend:
[1] = Plasma concentrations of DM after oral DM with or without quinidine (HPLC); format: in vivo, human; details: blood sampled 10-12 hours later, per volunteer
Experimental: Five patients with a symptom of having premature ejaculation were orally administered 120 mg of DM, with no co-administration of quinidine. Between 10 and 12 hours later, blood was sampled, blood plasma was isolated by centrifugation, and the plasma was analyzed to determine the DM concentration using the HPLC method. During a different week, the same patients were orally administered 60 mg of DM (half the control dosage) and 150 mg of quinidine. Between 10 and 12 hours later, blood was sampled and the plasma was analyzed for DM using thebaine/HPLC. The results, in Table 1, indicate that quinidine causes a major increase in the concentration of DM in the blood plasma.

cyclooxygenase-2 (COX-2) = cyclooxygenase-2 (COX-2) (Homo sapiens, UniProt P35354); details: cited from earlier work
[2] = target: phosphodiesterase type 5 (PDE5) (Homo sapiens, UniProt O76074); details: in vitro; PDE5 vs PDE6; cited from earlier work
[3] = oral administration, Viagra formulation; cited from earlier work

Sequence of cyclooxygenase-2 (COX-2) (P35354 18-604, species assumed): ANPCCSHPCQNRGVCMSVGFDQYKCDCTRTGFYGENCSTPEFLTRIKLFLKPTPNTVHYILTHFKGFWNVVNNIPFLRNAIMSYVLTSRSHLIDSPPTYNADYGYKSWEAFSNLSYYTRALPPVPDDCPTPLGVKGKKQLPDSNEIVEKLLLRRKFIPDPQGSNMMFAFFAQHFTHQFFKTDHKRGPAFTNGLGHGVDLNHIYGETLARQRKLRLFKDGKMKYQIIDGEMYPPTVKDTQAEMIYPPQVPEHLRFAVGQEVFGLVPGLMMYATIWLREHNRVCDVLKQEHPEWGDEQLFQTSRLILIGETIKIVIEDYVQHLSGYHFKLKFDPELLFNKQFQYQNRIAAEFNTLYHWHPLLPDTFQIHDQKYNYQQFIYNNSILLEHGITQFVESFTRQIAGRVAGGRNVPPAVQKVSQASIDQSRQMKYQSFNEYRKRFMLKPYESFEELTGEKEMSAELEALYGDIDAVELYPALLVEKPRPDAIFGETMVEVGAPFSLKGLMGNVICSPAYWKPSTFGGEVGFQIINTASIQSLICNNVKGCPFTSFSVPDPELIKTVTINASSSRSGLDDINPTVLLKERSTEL

## COc1ccc2c(c1)[C@@]13CCCC[C@H]1[C@@H](C2)N(C)CC3 [DM, (+)-3-methoxy-N-methylmorphinan]
[1]; 60 mg DM + 150 mg quinidine oral
  PLASMA CONCENTRATION of DM: 34.2 ng/mL and 42.4 ng/mL and 30.2 ng/mL and 26.8 ng/mL and 10.2 ng/mL
[1]; 120 mg DM oral, quinidine 0 mg
  PLASMA CONCENTRATION of DM: 13.5 ng/mL and 15.4 ng/mL and <1 ng/mL (2×) and 5.7 ng/mL

## CS(=O)(=O)c1ccc(C2=C(c3ccccc3)C(=O)OC2)cc1 [rofecoxib]
cyclooxygenase-2 (COX-2)
  specificity for inhibiting COX-2 (over COX-1): about 350 fold

## CCCc1nn(C)c2c(=O)[nH]c(-c3cc(S(=O)(=O)N4CCN(C)CC4)ccc3OCC)nc12 [sildenafil, 1-[[3-(6,7-dihydro-1-methyl-7-oxo-3-propyl-1H-pyrazolo[4,3-d]pyrimidin-5-yl)-4-ethoxyphenyl]sulfonyl]-4-methyl piperazine]
[2]
  potency for PDE5 compared to PDE6: about 10 fold
[3]
  absolute bioavailability: about 40%
